These results are taken from patent US20030064380A1, “Anergy-regulated molecules” (The Center For Blood Research, Inc., priority 2001, published 2003).

For assay [1], the system named is Th1 cells. Description: cytokine mRNA induction in primary Th1 cells after tolerising pretreatment. Type of assay: cell-based, mice. As to the method:
The murine Th1 cell clone D5 (Ar-5) was cultured as previously described (Agarwal and Rao, (1998) Immunity 9: 765-775). Primary CD4+T cells were isolated from lymph nodes and spleen of NFAT1−/− or wild type DO11.10 transgenic mice using magnetic beads (Dynal), and differentiated in vitro by stimulating for one week with irradiated APC and 1 μg/ml OVA as previously described (Agarwal and Rao, (1998) Immunity 9: 765-775). Jurkat and Phoenix Ecotropic cells were cultured in Dulbecco's modified Eagle's medium supplemented with 10% fetal calf serum, 10 mM HEPES and 2 mM glutamine.
(§1) Total cellular RNA was purified from resting cells or cells stimulated with APC and antigen or anti-CD3 plus anti-CD28 for 4 h, using Ultraspec reagent (Biotecx) and analyzed using the RiboQuant multiprobe RNase protection kit and specific multi-set probes (Pharmingen) according to the manufacturer's instructions. Jurkat cells were transfected by electroporation in serum-free medium with pulses of 250 V and 960 μF with […] of pEGFPN1 (Clontech) or pNLS-NFAT1 (ST2+5+8) (Okamura et al., (2000) Mol. Cell. 6: 539-550). RNA from transiently transfected Jurkat cells was obtained after selecting transfected cells for expression of a cotransfected murine CD4 plasmid using magnetic beads (Dynal).
(§2) Thus the net effect of a tolerising stimulus on T cells is to skew the cytokine response towards production of the immunosuppressive cytokine […], while down-regulating production of multiple other cytokines and chemokines associated with a productive immune response.
The anergised cells were fully responsive to PMA and ionomycin, stimuli which bypass the membrane-proximal steps of TCR signal transduction.

Assay [2] relates to Th2 cells. Description: cytokine mRNA levels in Th2 cells after ionomycin pretreatment. Type of assay: cell-based. As to the method: as §1, §2
Assay [3] concerns NFAT, AP-1 and NFκB DNA-binding activity. The experiment in a line: electrophoretic mobility shift assay of nuclear extracts of stimulated Th1 cells. Type of assay: cell-based. As to the method: Nuclear extracts were prepared from Th1 cells, unstimulated or stimulated for 60 minutes with 500 nM ionomycin or 20 nM PMA plus 500 nM ionomycin. Binding reactions were performed as previously described (Macian et al., (2000) EMBO J. 19: […]) using NFAT, AP-1 and NF-KB specific probes (Goldfeld et al., (1993) J. Exp. Med. 178: 1365-1379).
On the technique in general: Mobility shift assays separate free from complexed probe on a gel.

Assay [4] has as its system caspase-3. The experiment in a line: RNase protection assay of caspase-3 mRNA. Type of assay: cell-based, murine. The following applies: D5 T cells. As to the method: as §1
Of particular interest was the fact that several of the ionomycin-induced genes encoded proteins involved (or potentially involved) in protein degradation. Candidate genes in this category included caspase-3, SOCS-2 and Traf5 (FIG. 6B). Caspase-3 is an enzyme for which commercial reagents are readily available. Tests were conducted to determine whether caspase-3 was activated and functional in ionomycin-pretreated T cells. […] Further work will be necessary to establish whether proteolysis occurs in specific intracellular compartments relevant to TCR signal transduction or whether other signaling proteins are substrates for proteolysis in anergic cells.

Assay [5] concerns D5 and Th1 cells. Description: gene transcription profiles of ionomycin-induced genes (FIGS. 6B, 7B), Affymetrix arrays and real-time RT-PCR. It counts as cell-based, murine. Here is the method: D5 or primary T cells from NFAT1−/− or wild type DO11.10 transgenic mice were stimulated for 2, 6 or 16 hours with 500 nM ionomycin, 20 nM PMA plus 500 nM ionomycin, or 1 μM CsA plus 500 nM ionomycin. Total RNA was isolated with an RNeasy kit (QIAGEN). Ten μg of total RNA was quantitatively amplified and biotin-labeled as described (Byrne et al., (2000) “Preparation of mRNA for Expression Monitoring” Current Protocols in Molecular Biology (John Wiley & Sons, Inc.) pp. 22.22.21-22.22.13). Hybridization to GeneChips® (Affymetrix) displaying probes for 11,000 mouse genes/ESTs was performed at 40° C. overnight in a mix that included 10 μg fragmented RNA, 6× SSPE, 0.005% Triton X-100 and 100 μg/ml herring sperm DNA in a total volume of 200 μl. Chips were washed, stained with SA-PE and read using an Affymetrix GeneChip® scanner and accompanying gene expression software. […]
Total RNA was prepared from resting or stimulated T cells using Ultraspec reagent (Biotecx). cDNA was synthesized using oligo-dT primers and Superscript polymerase (Invitrogen) following the manufacturer's recommendations. Quantitative real-time PCR was performed in an I-Cycler (BioRad) using a SYBR Green PCR kit from Applied Biosystems and specific primers to amplify 100-200 bp fragments from the different genes analyzed. A threshold was set in the linear part of the amplification curve (fluorescence=f[cycle number]) and the number of cycles needed to reach it calculated for every gene. […]
Among them were many ESTs with no assigned function; a single cytokine gene, M-CSF; genes in other functional categories as shown in FIG. 6B; but no other genes normally associated with a productive immune response. […] To validate the array data, expression of 15 of the 18 genes were evaluated by quantitative real-time RT-PCR, and in every case ionomycin-mediated induction was confirmed (see numbers within panels of FIG. 6B). […]

The mark [6] stands for this setting: primary Th1 cells, pretreatment, subsequent stimulation with antigen.

In the case of `C[C@H](CCC(=O)O)C[C@H](C)C[C@H](C)C(=O)/C=C(\O)[C@H](C)C[C@H](C)C/C=C/[C@@H](C)[C@@H](O)[C@@H](C)[C@@H](O)C[C@@H]1CC[C@@](C)([C@H]2CC[C@@](C)([C@@H](C)O)O2)O1` [Ionomycin, ionomycin], the “induction of IL-2 and IFN-γ mRNA” value in assay [1] (NFAT1−/− Th1 cells, after pretreatment) is “perceptible induction”. Also, in assay [1] (setting [6]), the “effect on Fas-L mRNA” value was “less effect”; the “induction of IL-2, IFN-γ, IL-10, TNF-α and MIP-1α mRNAs” value is “pronounced decrease”. Also, in assay [1] (wildtype DO11.10 Th1 T cells, pretreatment), the “induction of L-2 and IFN-γ mRNA” value is “markedly decreased”. In addition, in assay [2], the IL-10 transcript levels entry is listed as “not affected”; the “reduction in mRNA levels of IL-4, IL-5 and IL-13” value is on record as “approximately 70%”. Besides, in assay [3], the “AP-1 or NFκB DNA-binding activity” value is listed as “no increase” and the “NFAT DNA-binding activity” value is “increased”. Moreover, the “caspase-3 mRNA level” value in assay [4] was “upregulated”. In assay [5] (compared to PMA/ionomycin), the “induction of Grg4, Ikaros, PTP-1B and GBP-3” value was “more strongly induced”. Besides, the “induction of Rab-10” value in assay [5] (early times) is “markedly induced”. Further, the “induction of jumonji, CD98 and FasL” value in assay [5] (ionomycin versus PMA/ionomycin) is “similarly induced”.
